Laboratory results taken from patent publication US9327225B2, “Air cleaning filter and method for manufacturing the same” (LG Electronics Inc., priority 2012, dated 2016).

Legend:
[1] = tested on: E. coli; test: Shaking flask method, materials in maintenance medium; format: cell-based, Escherichia coli; details: 35° C., concentration of each material (wt %)
Method: 3. Experiment Using Shaking Flask Method
A maintenance medium produced with 1% of nutrient broth and 0.5% of NaCl and inoculated with about 10^5 cfu/ml of E. coli was prepared. Materials of PVPI, ginseng extract, bronopol, PA and NS were introduced to the medium, respectively, and reacted at 35° C., and the antibiotic effect was examined using a pour plate method after 6 hours and 24 hours had been passed.
The antibiotic effect in the Table 3 was calculated using the following equation.
Me: Cell number of maintenance medium to which each material is added
Mc: Cell number of maintenance medium to which each material is not added

[2] = tested on: E. coli; test: Paper disc experiment (clear zone); format: cell-based, Escherichia coli; details: 24 hours, 35° C.
Method: (§1) 10^5 cfu/ml of E. coli and S. aureus were sub-cultured in a Mueller Hinton agar, respectively, and then smeared.
(§2) PVPI, ginseng extract, bronopol, PA, NS and PD were introduced to the paper disc, respectively, and left and dried for 5 to 10 minutes. The dried paper disc was put on a culture medium smeared with the E. coli and S. aureus with a sufficient interval, and cultured for 24 hours in a 35° C. incubator and then the size of clear zone was examined and the result is summarized in the following Table 2.

[3] = tested on: S. aureus; test: Paper disc experiment (clear zone); format: cell-based, Staphylococcus aureus; details: 24 hours, 35° C.
Method: as §1, §2

[4] = tested on: staphylococcus aureus (S. aureus); test: Measurement of minimal inhibitory concentration (MIC), turbidity; format: cell-based; details: for minimal inhibitory concentration, S. aureus: Table 1, 35° C., 14-16 hours; for S. aureus MIC value: Table 2
Text: (§3) 1. Measurement of Minimal Inhibitory Concentration (MIC)
(§4) Polyvinylpyrrolidone iodine (hereinafter, abbreviated as “PVPI”), phthalaldehyde (hereinafter, abbreviated as “PA”), potassium disulphite (hereinafter, abbreviated as “PD”) bronopol, norspermidine (hereinafter, abbreviated as “NS), and the ginseng extract were sequentially diluted, respectively, and prepared with various concentrations to prepare MIC measurement specimens. About 10^4-5 cfu/ml of escherichia coli (E. coli) and about 10^4˜5 cfu/ml of staphylococcus aureus (S. aureus) were added to the MIC measurement specimens, respectively. The specimens were cultured at 35° C. for 14-16 hours and then the turbidity was examined, respectively.
(§5) As a comparative example, specimens to which the E. coli and the S. aureus were added to distilled water, respectively, were cultured at the same time, and the minimal inhibitory concentration of the specimens was measured with reference to specimens subsequent to the culture and the turbidity of the comparative example subsequent to the culture.

[5] = tested on: escherichia coli (E. coli); test: as above; format: cell-based; details: for minimal inhibitory concentration, E. coli: Table 1, 35° C., 14-16 hours; for E. coli MIC value: Table 2; for MIC value of E. coli (wt %): in Table 3
Text: as §3, §4, §5

| Compound | Antibiotic effect after 6 hours [1] [%] | Antibiotic effect after 24 hours [1] [%] | E. coli clear zone (mm) [2] [mm] | S. aureus clear zone (mm) [3] [mm] | minimal inhibitory concentration, S. aureus [4] | S. aureus MIC value [4] [% weight %] | minimal inhibitory concentration, E. coli [5] | E. coli MIC value [5] [% weight %] | MIC value of E. coli (wt %) [5] [% wt %] |
| --- | --- | --- | --- | --- | --- | --- | --- | --- | --- |
| O=[N+]([O-])C(Br)(CO)CO [Bronopol, bronopol, reference compound] | 99.99 | 100 | 10 | 10 | Less than 0.0009% weight % | 0.156 | Less than 0.0009% weight % | 0.156 | 0.156 |
| Polyvinylpyrrolidone iodine [PVPI, reference compound] | 99.99 | 100 | 12 | 30 | 1.875% weight % | 1.875 | 1.875% weight % | 1.875 | 1.875 |
| NCCCNCCCN [NS, norspermidine] | 99.99 | 100 | 14 | 23 | 0.078% weight % | 0.078 | 0.312% weight % | 0.312 | 0.312 |
| O=Cc1ccccc1C=O [PA, phthalaldehyde] | 99.99 | 100 | 10 | 11 | 0.156% weight % | < 0.0009 | 0.156% weight % | < 0.0009 | < 0.0009 |
| O=S([O-])OS(=O)[O-].[K+].[K+] [PD, potassium disulphite] | – | – | 12 | 32 | 0.078% weight % | 0.078 | 0.156% weight % | 0.156 | – |
